Laboratory results from US8518954B2, “Inhibitors of folic acid-dependent enzymes” (priority 2005, dated 2013).

Key:
carcinoma W256 = experiment: Walker-256 rat tumor model; format: in vivo
Procedure: Compounds of formula I were also active in vivo against the carcinoma W256 (TGI=28%), most likely due to the higher solubility and thus passive transport into the tumor compared with other anti-folate agents. Median survival times for saline-treated control animals and animals receiving Compound 4 (1 mg/kg) intraperitoneally in the Walker-256 rat tumor model were 22.5 and >46.3 days, respectively.

L 1210 cells = experiment: Tumor inhibition in mice, subcutaneous L1210 cells; format: in vivo; details: DBA/2 mice, L1210 s.c.; 0.5 mg/kg; saline control 6.7 days
Procedure: The ability of compounds of formula I to inhibit tumor growth in mice was tested as follows. 5×10^6 L 1210 cells were injected subcutaneously in the axillary region of DBA/2 mice (groups of 8 mice/treatment). Following intraperitoneal administration of saline solution only or saline solution containing a compound of formula I the length and width of the control tumor (receiving only saline) was measured at the indicated time and compared to those of animals receiving test compound to calculate the percentage of inhibition. Intraperitoneal administration of a saline solution containing the test compound, daily for 6 days, led to 60% tumor-free long term survivors (tumor weight zero). Median survival times for saline-treated control animals and animals receiving Compound 4 (0.5 mg/kg) were 6.7 and 15.6 days, respectively. Oral administration of the compound required a higher dosage of the inhibitor and led to a less-marked, but still significant reduction of the tumor weight and 25% long-term survivors as compared with the saline-treated control group.

[1] = test system: dihydrofolate reductase (DHFR); details: one representative experiment out of 5; 37° C., pH 7.0, 20 μM dihydrofolate, 100 μM NADPH
[2] = 0.25 mg/kg - 3 doses every 4 days
[3] = 0.5 mg/kg - 3 doses every 4 days

N-[4-[[2,4-diamino-6-pteridinyl)methyl]amino]benzoyl]pseudoglutamic acid [Compound 4]
No. animals surviving at day 30 days post-transplant (carcinoma W256; 0.1 mg/kg - 5 doses every day): 10/10
Tumor volume (cm^3) ± SE (carcinoma W256; 0.1 mg/kg - 5 doses every day): 14.5 ± 3.8 cm^3
No. animals surviving at day 30 days post-transplant (carcinoma W256; [2]): 8/10
Tumor volume (cm^3) ± SE (carcinoma W256; [2]): 23 ± 3.5 cm^3
No. animals surviving at day 30 days post-transplant (carcinoma W256; [3]): 9/10
Tumor volume (cm^3) ± SE (carcinoma W256; [3]): 13.4 ± 3.07 cm^3
No. animals surviving at day 30 days post-transplant (carcinoma W256; 1 mg/kg - one dose): 8/10
Tumor volume (cm^3) ± SE (carcinoma W256; 1 mg/kg - one dose): 17.1 ± 3.3 cm^3
Median survival time (carcinoma W256; Walker-256 rat tumor model, 1 mg/kg intraperitoneally, saline control 22.5 days): > 46.3 days
Median survival time (L 1210 cells): 15.6 days
Relative IC50 (IC50(Compound)/IC50(MTX)) [1]: 0.75
